The source of these data is US9057727B2, “Screening methods using G-protein coupled receptors and related compositions” (The General Hospital Corporation, priority 2007, dated 2015).

Assay [1] deals with LLCPK1-B64 cells or SaOS-2 cells. The assay can be described thus: cAMP screen of substituted PTHrP(1-28) analogs (% parent). Type of assay: cell-based. The conditions noted are these: parent PTHrP(1-28)NH. On the procedure: Alanine substitution at position 18, 22, 25 and 26 increased activity in at least one cell type. These positions were further substituted to various types of amino acids, and cAMP activity was analyzed in LLCPK1-B64 cells (FIG. 27C) or SaOS-2 cells (FIG. 27D). Cells were treated with analogs at 3×10^−9M in the presence of IBMX for 30 minutes at room temperature. Responses for each analog were normalized to the response for the parent (native) PTHrP(1-28) peptide. Alanine substitutions were A^15 to A^17 (SEQ ID NO:152-154), A^18 (SEQ ID NO:34), A^19 to A^21 (SEQ ID NO:155-157), A^22 (SEQ ID NO:39), A^23 to A^25 (SEQ ID NO:158-160), A^26 (SEQ ID NO:46), and A^27 to A^28 (SEQ ID NO:161-162). Substitutions at position 18 were A^18 (SEQ ID NO: 34), G^18 (SEQ ID NO:163), S^18 (SEQ ID NO:35), M^18 (SEQ ID NO:36), L^18 (SEQ ID NO:164), F^18 (SEQ ID NO:37), N^18 (SEQ ID NO:165), E^18 (SEQ ID NO:38), and K^18 (SEQ ID NO:166). Substitutions at position 22 were A^22 (SEQ ID NO:39), G^22 (SEQ ID NO:167), and S^22 to K^22 (SEQ ID NO:40-45). Substitutions at position 26 were A^26 (SEQ ID NO:46), G^26 (SEQ ID NO:168), S^26 (SEQ ID NO:47), L^26 (SEQ ID NO:169), N^26 (SEQ ID NO:48), W^26 to E^26 (SEQ ID NO:170-171), and K^26 to R^26 (SEQ ID NO:49-50). Substitutions at position 25 were G^25 to S^25 (SEQ ID NO:172-173), L^25 (SEQ ID NO:51), N^25 (SEQ ID NO:174), W^25 (SEQ ID NO:52), E^25 (SEQ ID NO:175), and K^25 to R^25 (SEQ ID NO:53-54). […]

Assay [2] addresses T1, human PTHR, G protein-uncoupled conformation (R^0) (Homo sapiens, UniProt Q03431).
T1 construct: expressed in transfected cells; host or cells: COS-7, transient (Fugene-6)
T1 sequence (Q03431 27-593): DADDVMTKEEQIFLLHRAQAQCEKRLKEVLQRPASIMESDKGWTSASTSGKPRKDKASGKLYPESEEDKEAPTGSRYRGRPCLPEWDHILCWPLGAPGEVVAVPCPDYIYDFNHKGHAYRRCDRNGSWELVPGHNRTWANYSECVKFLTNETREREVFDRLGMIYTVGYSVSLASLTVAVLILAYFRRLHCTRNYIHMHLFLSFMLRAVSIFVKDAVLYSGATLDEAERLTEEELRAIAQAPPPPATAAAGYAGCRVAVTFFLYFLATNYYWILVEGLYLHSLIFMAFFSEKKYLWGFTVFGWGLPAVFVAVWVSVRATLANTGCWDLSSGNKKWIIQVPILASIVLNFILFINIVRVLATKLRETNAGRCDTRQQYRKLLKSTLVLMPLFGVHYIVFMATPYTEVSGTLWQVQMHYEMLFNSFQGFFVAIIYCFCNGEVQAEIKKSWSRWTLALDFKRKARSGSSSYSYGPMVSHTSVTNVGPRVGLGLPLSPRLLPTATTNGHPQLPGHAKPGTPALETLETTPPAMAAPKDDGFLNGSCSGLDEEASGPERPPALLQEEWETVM
The assay can be described thus: Competition binding to R0 conformation of hPTHR (COS-7 membranes, GTPγS, 125I-PTH(1-34) tracer). Here is the method:
Membranes were prepared from COS-7 cells transfected with the hPTHR alone. GTPγS ([…]) was added to the binding reactions so as to functionally uncouple receptor-heterotrimeric G protein complexes, thus enriching for the R^0 (and R) conformations, relative to RG.
Reactions contained a total membrane protein concentration of 20 to 100 μg/mL, and a total radioactivity concentration of approximately 150,000 cpm/ml. Unlabeled peptide ligands and/or GTPγS (Sigma-Aldrich Inc. St. Louis, Mo.) were added to the reactions as indicated.
Membranes, tracer radioligand, and various concentrations of unlabeled ligands and/or GTPγS were incubated in the wells for 90 minutes, following which, the reaction plates were processed by rapid vacuum filtration to separate bound from free radioligand, as described above. […] For both radioligands, the non-specific binding was determined in reactions containing a saturating concentration of the unlabeled analog of the radioligand. The specifically bound radioactivity was calculated as a percent of the radioactivity specifically bound in the absence of a competing ligand or GTPγS.
To assess the capacities of various unlabeled peptide ligands to bind to the G protein-uncoupled and G protein-coupled PTHR conformations (R^0 and RG, respectively), membranes were prepared from transiently transfected COS-7 cells and the following assay conditions.

Ends that are not written are not given here. Peptide text beside a SMILES is read from it.

Take “M18-PTHrP(1-28) (AVSEHQLLHDKGKSIQDMRRRFFLHHLI-NH2) [M18-PTHrP(1-28)NH]”: in assay [1], the “screen cAMP (% parent)” value is 113 % parent. The same measure, in the same setting: then “N22-PTHrP(1-28) (AVSEHQLLHDKGKSIQDLRRRNFLHHLI-NH2) [N22-PTHrP(1-28)NH]”, with 138 % parent. As for `CC[C@H](C)[C@H](NC(=O)[C@H](CCC(=O)O)NC(=O)[C@H](C)NC(=O)[C@@H](NC(=O)[C@H](C)N)C(C)C)C(=O)N[C@@H](CCC(N)=O)C(=O)N[C@@H](CC(C)C)C(=O)N[C@@H](CCSC)C(=O)N[C@@H](Cc1c[nH]cn1)C(=O)N[C@@H](CCC(N)=O)C(=O)N[C@@H](CCCNC(=N)N)C(=O)N[C@@H](C)C(=O)N[C@@H](CCCCN)C(=O)N[C@@H](Cc1c[nH]c2ccccc12)C(=O)N[C@@H](CC(C)C)C(=O)N[C@@H](CC(N)=O)C(=O)N[C@@H](CO)C(=O)N[C@@H](CCSC)C(=O)N[C@@H](CCCNC(=N)N)C(=O)N[C@@H](CCCNC(=N)N)C(=O)N[C@H](C(=O)N[C@@H](CCC(=O)O)C(=O)N[C@@H](Cc1ccccc1)C(=O)N[C@@H](CC(C)C)C(=O)N[C@@H](CCCNC(=N)N)C(=O)N[C@@H](CCCCN)C(=O)N[C@@H](CCCCN)C(=O)N[C@@H](CC(C)C)C(=O)N[C@@H](CCC(N)=O)C(=O)N[C@@H](CC(=O)O)C(=O)N[C@H](C(=O)N[C@@H](Cc1c[nH]cn1)C(=O)N[C@@H](CC(N)=O)C(=O)N[C@@H](Cc1ccccc1)C(=O)O)C(C)C)C(C)C` [F23,Mc-PTH(1-34)OH, F^23,Mc-PTH(1-34)OH] (H-AVAEIQLMHQRAKWLNSMRRVEFLRKKLQDVHNF-OH; N-terminus assumed), the IC50 (commonly the concentration at which inhibition is half-maximal) in assay [2] (Table 4, human PTH1 receptor, read-out: R0 binding IC50) turned out to be 1.2 ± 0.4 nM. In addition, the R0/RG ratio in assay [2] (human PTH receptor on COS-7 cell membranes) is listed as 5.

Turning to “L22-PTHrP(1-28) (AVSEHQLLHDKGKSIQDLRRRLFLHHLI-NH2) [L22-PTHrP(1-28)NH]”, the “screen cAMP (% parent)” value in assay [1] was 142 % parent. As for “A18,22,I25,K26-PTHrP(1-28) (AVSEHQLLHDKGKSIQDARRRAFLIKLI-NH2) [A18, 22, I25, K26-PTHrP(1-28)NH]”, in assay [1], the “screen cAMP (% parent)” value is 342 % parent. “S22-PTHrP(1-28) (AVSEHQLLHDKGKSIQDLRRRSFLHHLI-NH2) [S22-PTHrP(1-28)NH]”: the “screen cAMP (% parent)” value in assay [1] is reported as 141 % parent. Same read-out and setting: the figure for “E18,A22,26-PTHrP(1-28) (AVSEHQLLHDKGKSIQDERRRAFLHALI-NH2) [E18, A22, 26-PTHrP(1-28)NH]” is 190 % parent; for “K26-PTHrP(1-28) (AVSEHQLLHDKGKSIQDLRRRFFLHKLI-NH2) [K26-PTHrP(1-28)NH]” it is 142 % parent; for “K25-PTHrP(1-28) (AVSEHQLLHDKGKSIQDLRRRFFLKHLI-NH2) [K25-PTHrP(1-28)NH]” it is 163 % parent. The same measure, in the same setting: the figure for “F18-PTHrP(1-28) (AVSEHQLLHDKGKSIQDFRRRFFLHHLI-NH2) [F18-PTHrP(1-28)NH]” is 109 % parent; for “A22-PTHrP(1-28) (AVSEHQLLHDKGKSIQDLRRRAFLHHLI-NH2) [A22-PTHrP(1-28)NH]” it is 185 % parent; for “S18-PTHrP(1-28) (AVSEHQLLHDKGKSIQDSRRRFFLHHLI-NH2) [S18-PTHrP(1-28)NH]” it is 121 % parent. For “E22-PTHrP(1-28) (AVSEHQLLHDKGKSIQDLRRREFLHHLI-NH2) [E22-PTHrP(1-28)NH]”, the “screen cAMP (% parent)” value in assay [1] is 121 % parent.

For “A18,22,W25,K26-PTHrP(1-28) (AVSEHQLLHDKGKSIQDARRRAFLWKLI-NH2) [A18, 22, W25, K26-PTHrP(1-28)NH]”, the “screen cAMP (% parent)” value in assay [1] was found to be 329 % parent. The same measure, in the same setting: the figure for “N26-PTHrP(1-28) (AVSEHQLLHDKGKSIQDLRRRFFLHNLI-NH2) [N26-PTHrP(1-28)NH]” is 113 % parent.

Consider “W22-PTHrP(1-28) (AVSEHQLLHDKGKSIQDLRRRWFLHHLI-NH2) [W22-PTHrP(1-28)NH]”, for which, in assay [1], the “screen cAMP (% parent)” value is 129 % parent.

For “R26-PTHrP(1-28) (AVSEHQLLHDKGKSIQDLRRRFFLHRLI-NH2) [R26-PTHrP(1-28)NH]”, the “screen cAMP (% parent)” value in assay [1] is reported as 143 % parent. With “A18-PTHrP(1-28) (AVSEHQLLHDKGKSIQDARRRFFLHHLI-NH2) [A18-PTHrP(1-28)NH]”, the “screen cAMP (% parent)” value in assay [1] is listed as 164 % parent.

On to “S26-PTHrP(1-28) (AVSEHQLLHDKGKSIQDLRRRFFLHSLI-NH2) [S26-PTHrP(1-28)NH]”, for which the “screen cAMP (% parent)” value in assay [1] was determined as 107 % parent.

Take “A18,22,F25,K26-PTHrP(1-28) (AVSEHQLLHDKGKSIQDARRRAFLFKLI-NH2) [A18, 22, F25, K26-PTHrP(1-28)NH]”: the “screen cAMP (% parent)” value in assay [1] was 337 % parent.

With “A26-PTHrP(1-28) (AVSEHQLLHDKGKSIQDLRRRFFLHALI-NH2) [A26-PTHrP(1-28)NH]”, in assay [1], the “screen cAMP (% parent)” value is on record as 142 % parent. On the same count and under the same terms, the figure for “W25-PTHrP(1-28) (AVSEHQLLHDKGKSIQDLRRRFFLWHLI-NH2) [W25-PTHrP(1-28)NH]” is 270 % parent; for “R25-PTHrP(1-28) (AVSEHQLLHDKGKSIQDLRRRFFLRHLI-NH2) [R25-PTHrP(1-28)NH]” it is 204 % parent. Turning to “L25-PTHrP(1-28) (AVSEHQLLHDKGKSIQDLRRRFFLLHLI-NH2) [L25-PTHrP(1-28)NH]”, the “screen cAMP (% parent)” value in assay [1] was determined as 325 % parent. On to “E18,S22,K25,26-PTHrP(1-28) (AVSEHQLLHDKGKSIQDERRRSFLKKLI-NH2) [E18, S22, K25, 26-PTHrP(1-28)NH]”, for which, in assay [1], the “screen cAMP (% parent)” value is recorded as 335 % parent. Still for that read-out and setting: the figure for “K22-PTHrP(1-28) (AVSEHQLLHDKGKSIQDLRRRKFLHHLI-NH2) [K22-PTHrP(1-28)NH]” is 150 % parent; for “E18-PTHrP(1-28) (AVSEHQLLHDKGKSIQDERRRFFLHHLI-NH2) [E18-PTHrP(1-28)NH]” it is 140 % parent.
